The test system of assay [1] is Bacillus cereus (MTCC2128). As to the kind of experiment: Antibacterial activity, agar well diffusion. The format is cell-based. As to conditions: for zone of inhibition / inhibition in words: 25 μl. How it is done:
(§1) The antibacterial activity was determined by using the agar well diffusion method [[50], [51], [52]]. Two bacterial strains were used to evaluate the antibacterial efficacy of the synthesized compounds: one Gram-positive strain, Bacillus cereus (MTCC2128), and one Gram-negative strain, Escherichia coli (MTCC2412). Sterilized Mueller Hinton Broth (MHB) was used to cultivate the bacterial strains, and the mixture was incubated for 18 h at 37 °C. To evaluate the antibacterial activity, the inhibition zone (RIZ) radius encircled each well was determined in millimeters. The experiments were carried out duplicates. The incubation period for the plates was from 72 to 96 h at a temperature of 37 °C. The zone of inhibition was then looked for on the plates.
Background: A growth-free zone around the sample is the usual read-out of agar diffusion tests.

The test system of assay [2] is Escherichia coli (MTCC2412). As to the kind of experiment: Antibacterial activity, agar well diffusion. The format is cell-based. As for the experimental part:
as §1

For assay [3], the target named is α-glucosidase. As to conditions: Fig. 1; cited from earlier work.

Structures are written as SMILES. Values joined by “and” are separate entries in the source; they are usually repeats but may differ in a detail not shown here. Equal entries are not always repeated.

`COc1cc2onc(CCOCc3cn(-c4cccc(Cl)c4)nn3)c2cc1Cl` [Compound 9c, 5-Chloro-3-(2-((1-(3-chlorophenyl)-1H-1,2,3-triazol-4-yl)methoxy)ethyl)-6-methoxybenzo[d]isoxazole]: the zone of inhibition (in general, the size of the clear area around the sample on an inoculated plate) in assay [1] is recorded as 0.4 mm. `COc1cc2onc(CCOCc3cn(-c4ccccc4C)nn3)c2cc1Cl` [Compound 9f, 5-Chloro-6-methoxy-3-(2-((1-(o-tolyl)-1H-1,2,3-triazol-4-yl)methoxy)ethyl)benzo[d] isoxazole]: in assay [1], the “antibacterial activity in words” value was “showed antibacterial activity” and the “zone of inhibition” value is 0.5 mm. For `COc1cc2onc(CCOCc3cn(-c4ccccc4OC)nn3)c2cc1Cl` [Compound 9g, 5-Chloro-6-methoxy-3-(2-((1-(2-methoxyphenyl)-1H-1,2,3-triazol-4-yl)methoxy)ethyl) benzo[d]isoxazole], the “zone of inhibition” value in assay [2] (75 μl) is given as 0.9 mm; in assay [2] (100 μl) it was 1.2 mm. With `COc1ccc(-n2cc(COCCc3noc4cc(OC)c(Cl)cc34)nn2)cc1` [Compound 9h, 5-Chloro-6-methoxy-3-(2-((1-(4-methoxyphenyl)-1H-1,2,3-triazol-4-yl)methoxy)ethyl) benzo[d]isoxazole], in assay [1], the “antibacterial activity in words” value is listed as “showed antibacterial activity” and the “zone of inhibition” value is on record as 0.5 mm. `COc1cc2onc(CCOCc3cn(-c4ccc(Br)c(F)c4)nn3)c2cc1Cl` [Compound 9i, 3-(2-((1-(4-Bromo-3-fluorophenyl)-1H-1,2,3-triazol-4-yl)methoxy)ethyl)-5-chloro-6-methoxybenzo[d]isoxazole]: in assay [1], the inhibition in words result is on record as “moderate inhibition”.

For `COc1cc2onc(CCOCc3cn(-c4ccc(F)cc4)nn3)c2cc1Cl` [Compound 9j, 5-Chloro-3-(2-((1-(4-fluorophenyl)-1H-1,2,3-triazol-4-yl)methoxy)ethyl)-6-methoxy benzo[d]isoxazole], the inhibition in words result in assay [1] was “moderate inhibition”. Still for that read-out and setting: for `COc1cc2onc(CCOCc3cn(-c4ccccc4C(F)(F)F)nn3)c2cc1Cl` [Compound 9k, 5-Chloro-6-methoxy-3-(2-((1-(2-(trifluoromethyl)phenyl)-1H-1,2,3-triazol-4-yl)methoxy)ethyl)benzo[d]isoxazole] the value was “moderate inhibition”. For `COc1cc2onc(CCOCc3cn(-c4ccc(C(F)(F)F)cc4)nn3)c2cc1Cl` [Compound 9l, 5-chloro-6-methoxy-3-(2-((1-(4-(trifluoromethyl)phenyl)-1H-1,2,3-triazol-4-yl)methoxy)ethyl)benzo[d]isoxazole], in assay [1], the “antibacterial activity in words” value is “showed antibacterial activity”; the “zone of inhibition” value is 0.5 mm and 0.4 mm.

On to `COc1cc2onc(CCOCc3cn(-c4ccc(C)c(C)c4)nn3)c2cc1Cl` [Compound 9m, 5-Chloro-3-(2-((1-(3,4-dimethylphenyl)-1H-1,2,3-triazol-4-yl)methoxy)ethyl)-6-methoxy benzo[d]isoxazole], for which the inhibition in words entry in assay [1] is recorded as “moderate inhibition”. On the same count and under the same terms, the value for `COc1cc2onc(CCOCc3cn(-c4ccc(Br)cc4)nn3)c2cc1Cl` [Compound 9n, 3-(2-((1-(4-Bromophenyl)-1H-1,2,3-triazol-4-yl)methoxy)ethyl)-5-chloro-6-methoxy benzo[d]isoxazole] was “moderate inhibition”; that for `COc1cc2onc(CCOCc3cn(-c4ccc(Br)c(C(F)(F)F)c4)nn3)c2cc1Cl` [Compound 9o, 3-(2-((1-(4-Bromo-3-(trifluoromethyl)phenyl)-1H-1,2,3-triazol-4-yl)methoxy)ethyl)-5-chloro-6-methoxybenzo[d]isoxazole] was “moderate inhibition”. Regarding `O=C1Nc2ccccc2/C1=N/N=C/c1ccc(OCc2cn(Cc3ccccc3F)nn2)cc1` [III], the IC50 (as a rule, the concentration needed to halve the response being measured) in assay [3] was 16.4 µM. Regarding `O=c1oc2ccccc2c(O)c1C(c1ccc(OCc2cn(-c3ccccc3Cl)nn2)cc1)c1c(O)c2ccccc2oc1=O` [I], the half-inhibitory concentration (IC50) in assay [3] was 13 µM.
